The test system of assay [1] is A549 Human lung carcinoma cells. Description: A549 Human Lung Cell Assay (transfected cells, dexamethasone challenge, luciferase read-out). Type of assay: cell-based. To be noted: test compound 10 min then dexamethasone challenge, 24 h, Luc-assay, read-out: A 549 IC50. The procedure:
A549Human Lung Cell Assay
A549Human lung carcinoma cells were grown in F-12K Nutrient Mixture containing 10% (v/v) fetal bovine serum (FBS; Invitrogen), 2 mM glutamine and 0.15% sodium dicarbonate (Invitrogen).
A549 cells were split 1 to 3 in 175 cm tissue culture flask. The cells were incubated at 37° C. in CO2 incubator until the cells were 95% confluent (typically 24-30 hours).
The following solutions were prepared in sterile tubes: (a) Solution A 1.5 μg/ml of DNA in 8.5 ml OPTI-MEM I Reduced Serum Medium. (GIBCO cat# 31985) and (b) Solution B: 6 μl/ml of DMRIE-C Reagent into […] OPTI-MEM I. The two solutions were combined and mixed gently, then incubated at room temperature for 40 minutes.
The A549 cells prepared above were washed with […] of OPTI-MEM I. The medium was removed and 17 ml of the lipid-DNA complex solution was overlayed onto cells. The cells ere then incubated for 16 h at 37° C. in CO2 incubator. The DNA-containing medium was removed and 30 ml of growth medium was added. (5% Charcoal treated FBS) After 5-6 h, the cells were seeded in a 96 well plate and the cells incubated overnight at 37° C. in CO2 incubator.
To each well was then added 5 μl of test compounds and the cells incubated at 37° C. for 10 min. 5 μL of dexamathasone (CAS [50-02-2]), was then added to each well for challenger and the cells incubated at 37° C. in CO2 incubator for 24 h. 100 μl of Luc-assay buffer was then added into each cell well and the cells incubated for 30 min at room temperature. A 150 μL sample from each well was then transferred into a DYNEX Microlitel plate and read on Top-counter.
(§1) Representative compounds of the present invention were tested according to the procedures described in Examples 45 and 46 above, with results as listed in Table 2 below.

In assay [2] the test system is T47D human breast cancer cells. Briefly: T47D Human Breast Cancer Cells Assay (alkaline phosphatase, luminescence). Type of assay: cell-based. As to the method: T47D Human Breast Cancer Cells Assay
T47D human breast cancer cells were grown in RPMI medium without phenol red (Invitrogen) containing 10% (v/v) heat-inactivated fetal bovine serum (FBS; Hyclone), 1% (v/v) penicillin-streptomycin (Invitrogen), 1% (w/v) glutamine (Invitrogen), and […] insulin (Sigma). Incubation conditions were 37° C. in a humidified 5% (v/v) carbon dioxide environment.
The cells were plated in 96-well tissue culture plates at 10,000 cells per well in assay medium [RPMI medium without phenol red (Invitrogen) containing 5% (v/v) charcoal-treated FBS (Hyclone) and 1% (v/v) penicillin-streptomycin (Invitrogen)]. Two days later, the medium was decanted and test compound or control were added at a final concentration of 0.1% (v/v) dimethyl sulfoxide in fresh assay medium. Twenty-four hours later, an alkaline phosphatase assay was performed using a SEAP kit (BD Biosciences Clontech, Palo Alto, Calif.). Briefly, the medium was decanted and the cells were fixed for 30 minutes at room temperature with 5% (v/v) formalin (Sigma). The cells were washed once with room temperature Hank's buffered saline solution (Invitrogen). Equal volumes (0.05 mL) of 1× Dilution Buffer, Assay Buffer and 1:20 substrate/enhancer mixture were then added. After 1 hour incubation at room temperature in the dark, the lysate was transferred to a white 96-well plate (Dynex) and luminescence was read using a LuminoSkan Ascent (Thermo Electron, Woburn, Mass.).
as §1

[3] abbreviates: Homo sapiens, T47D, 24 h, read-out: T47D IC50 (nM), T47D cells, 24 h with test compound, alkaline phosphatase assay (SEAP kit).
[4] abbreviates: T47D cells, 24 h with test compound, alkaline phosphatase assay (SEAP kit), read-out: T47D IC50.
[5] abbreviates: read-out: T47D IC50, T47D cells, 24 h with test compound, alkaline phosphatase assay (SEAP kit).

Read-outs that look alike come from different tables or passages of the source.

On to `COc1ccc([C@@H]2OC[C@]3(C)C(=O)CCC3C3CCC4=CC(=O)CCC4=C32)cc1` (stereo partly drawn) [Compound 29, 10-α-(4-Methoxy-phenyl)-12a-methyl-2,3,3a,3b,4,5,9,10,12,12a-decahydro-8H-11-oxa-naphtho[2,1-e]azulene-1,7-dione], for which the IC50 in assay [1] (Homo sapiens, A549, A549 cells) was more than 3000 nM.
On to `C=CC(=O)[C@]1(O)CCC2C3CCC4=CC(=O)CCC4=C3[C@@H](c3ccc(SC)cc3)OC[C@@]21C` (some centres unmarked) [Compound 26], for which, in assay [1] (Homo sapiens, A549, A549 cells), the IC50 came to 2310 nM.
Regarding `CC#C[C@]1(O)CCC2C3CCC4=CC(=O)CCC4=C3[C@H](c3ccc(OC)cc3)OC[C@@]21C` (stereo partly drawn) [Compound 15, 1-Hydroxy-10-α(4-methoxy-phenyl)-12a-methyl-1-prop-1-ynyl-2,3,3a,3b,4,5,9,10,12,12a-decahydro-1H,8H-11-oxa-naphtho[2,1-e]azulen-7-one], the IC50 is 583 nM in assay [1] (Homo sapiens, A549, A549 cells) and more than 1000 nM in assay [2] (setting [3]).
As to `CN(C)c1ccc([C@H]2OC[C@@]3(C)C(CC[C@@]3(O)C#Cc3cc(F)cc(F)c3)C3CCC4=CC(=O)CCC4=C32)cc1` (some centres unmarked) [Compound 36, 1-(3,5-Difluoro-phenylethynyl)-10-(4-dimethylamino-phenyl)-1-hydroxy-12a-methyl-2,3,3a,3b,4,5,9,10,12,12a-decahydro-1H,8H-11-oxa-naphtho[2,1-e]azulen-7-one], in assay [2] (setting [3]), the IC50 is 160 nM.
As for `C=C1CCOC12CC[C@H]1[C@@H]3CCC4=CC(=O)CCC4=C3[C@@H](c3ccc(N(C)C)cc3)OC[C@@]12C` (some centres unmarked) [Compound 38], the IC50 in assay [2] (setting [3]) is 1.1 nM.
Consider `COc1ccc([C@@H]2OC[C@@]3(C)C(CC[C@@]3(O)C#Cc3ccc(C(F)(F)F)cc3)C3CCC4=CC(=O)CCC4=C32)cc1` (some centres unmarked) [Compound 22, 1-Hydroxy-10-(4-methoxy-phenyl)-12a-methyl-1-(4-trifluoromethylphenylethynyl)-2,3,3a,3b,4,5,9,10,12,12a-decahydro-1H,8H-11-oxa-naphtho[2,1-e]azulen-7-one], for which the IC50 in assay [1] (Homo sapiens, A549, A549 cells) is more than 3000 nM; in assay [2] (setting [3]), more than 1000 nM.
Consider `CN(C)c1ccc(C2OCC3(C)C(CCC3(O)C(F)(F)C(F)(F)F)C3CCC4=CC(=O)CCC4=C23)cc1` (centres unmarked) [Compound 37, 10-(4-Dimethylamino-phenyl)-1-hydroxy-12a-methyl-1-penta fluoroethyl 2,3,3a,3b4,5,9,10,12,12a-decahydro-1H,8H-11-oxa-naphtho[2,1-e]azulen-7-one], for which the concentration for half-maximal inhibition (IC50) in assay [2] (setting [4]) stood at 42 nM.
As to `COc1ccc([C@H]2OC[C@@]3(C)C(CC[C@@]3(O)C#CC(F)(F)F)C3CCC4=CC(=O)CCC4=C32)cc1` (some centres unmarked) [Compound 19, 1-Hydroxy-10-(4-methoxy-phenyl)-12a-methyl-1-trifluoroprop-1-ynyl-2,3,3a,3b,4,5,9,10,12,12a-decahydro-1H,8H-11-oxa-naphtho[2,1-e]azulen-7-one], the IC50 is more than 3000 nM in assay [1] (Homo sapiens, A549, A549 cells) and more than 1000 nM in assay [2] (setting [3]).
On to `COc1ccc([C@H]2OC[C@@]3(C)C(CC[C@@]3(O)C#Cc3ccc(C(F)(F)F)cc3)C3CCC4=CC(=O)CCC4=C32)cc1` (some centres unmarked) [Compound 21, 1-Hydroxy-10-(4-methoxy-phenyl)-12a-methyl-1-(4-trifluoromethylphenylethynyl)-2,3,3a,3b,4,5,9,10,12,12a-decahydro-1H,8H-11-oxa-naphtho[2,1-e]azulen-7-one], for which the half-maximal inhibitory concentration (IC50) in assay [1] (A549 cells) and in assay [2] (setting [5]) was more than 1000 nM in each case.
On to “10-(4-Dimethylamino-phenyl)-1-ethynyl-1-hydroxy-12a-methyl-2,3,3a,3b,4,5,9,10,12,12a-decahydro-1H,8H-11-oxa-naphtho[2,1-e]azulen-7-one [Compound 3]”, for which the figures for the IC50 in assay [1] (A549 cells) and in assay [2] (setting [4]) were 133 nM and 7 nM, respectively.
As for “10-(4-Dimethylamino-phenyl)-1-(3-fluoro-phenylethynyl)-1-hydroxy-12a-methyl-2,3,3a,3b,4,5,9,10,12,12 a-decahydro-1H,8H-11-oxa-naphtho[2,1-e]azulen-7-one [Compound 34]”, the IC50 in assay [2] (setting [4]) was 122 nM.
For `C=CC[C@]1(O)CCC2C3CCC4=CC(=O)CCC4=C3[C@H](c3ccc(OC)cc3)OC[C@@]21C` (stereo partly drawn) [Compound 18, 1-Allyl-1-hydroxy-10α-(4-methoxy-phenyl)-12a-methyl 2,3,3a,3b,4,5,9,10,12,12a-decahydro-1H,8H-11-oxa-naphtho[2,1-e]azulen-7-one], the half-inhibitory concentration (IC50) was more than 3000 nM in assay [1] (Homo sapiens, A549, A549 cells) and more than 1000 nM in assay [2] (setting [3]).
For the compound “10-(4-Dimethylamino-phenyl)-1-(4-fluoro-phenylethynyl)-1-hydroxy-12a-methyl-2,3,3a,3b,4,5,9,10,12,12a-decahydro-1H,8H-11-oxa-naphtho[2,1-e]azulen-7-one [Compound 35]”, the IC50 in assay [2] (setting [4]) turned out to be 17 nM.
For `C=C(C)[C@]1(O)CCC2C3CCC4=CC(=O)CCC4=C3[C@@H](c3ccc(SC)cc3)OC[C@@]21C` (some centres unmarked) [Compound 2, 1-Hydroxy-1-isopropenyl-12a-methyl-10-(4-methylsulfanyl-phenyl)-2,3,3a,3b,4,5,9,10,12,12a-decahydro-1H,8H-11-oxa-naphtho[2,1-e]azulen-7-one], the IC50 was 58.2 nM in assay [1] (Homo sapiens, A549, A549 cells) and 5.12 nM in assay [2] (setting [3]).
The like results for `CSc1ccc([C@H]2OC[C@@]3(C)C(CC[C@@]3(O)C(F)(F)C(F)(F)F)C3CCC4=CC(=O)CCC4=C32)cc1` (some centres unmarked) [Compound 5] were, in that order, 7.06 nM and 54 nM.
For the compound `C=C(CCO)[C@]1(O)CCC2C3CCC4=CC(=O)CCC4=C3[C@@H](c3ccc(OC)cc3)OC[C@@]21C` (some centres unmarked) [Compound 24], the IC50 stood at 771 nM in assay [1] (Homo sapiens, A549, A549 cells); 176 nM in assay [2] (setting [3]); 130 nM in assay [2] (setting [5]).
For the compound `CN(C)c1ccc([C@H]2OC[C@@]3(C)C(CC[C@@]3(O)C#Cc3ccccc3F)C3CCC4=CC(=O)CCC4=C32)cc1` (some centres unmarked) [Compound 32, 10-(4-Dimethylamino-phenyl)-1-(2-fluoro-phenylethynyl)-1-hydroxy-12a-methyl-2,3,3a,3b,4,5,9,10,12,12a-decahydro-1H,8H-11-oxa-naphtho[2,1-e]azulen-7-one], the IC50 in assay [2] (setting [3]) amounted to 48 nM.
On to `CSc1ccc([C@H]2OC[C@]3(C)C(=O)CCC3C3CCC4=CC(=O)CCC4=C32)cc1` (some centres unmarked) [Compound 25, 12a-Methyl-10-(4-methylsulfanyl-phenyl) 2,3,3a,3b,4,5,9,10,12,12a-decahydro-8H-11-oxa-naphtho[2,1-e]azulene-1,7-dione], for which, in assay [1] (Homo sapiens, A549, A549 cells), the IC50 amounted to 1320 nM.
The same measure, in the same setting: the result for `COc1ccc([C@H]2OC[C@]3(C)C(=O)CCC3C3CCC4=CC(=O)CCC4=C32)cc1` (some centres unmarked) [Compound 28, 10-(4-Methoxy-phenyl)-12a-methyl-2,3,3a,3b,4,5,9,10,12,12a-decahydro-8H-11-oxa-naphtho[2,1-e]azulene-1,7-dione] reads more than 3000 nM.
“1-Hydroxy-1-isopropenyl-10-(4-methanesulfonyl-phenyl)-12a-methyl-2,3,3a,3b,4,5,9,10,10,12,12a-decahydro-1H,8H-11-oxa-naphtho[2,1-e]azulen-7-one [Compound 30]”: the concentration for half-maximal inhibition (IC50) in assay [1] (A549 cells) is more than 1000 nM.
On to `CN(C)c1ccc([C@H]2OC[C@@]3(C)C(CC[C@@]3(O)C#Cc3ccccc3)C3CCC4=CC(=O)CCC4=C32)cc1` (some centres unmarked) [Compound 31, 10-(4-Dimethylamino-phenyl)-1-hydroxy-12a-methyl-1-phenyl ethynyl-2,3,3a,3b,4,5,9,10,12,12a-decahydro-1H,8H-11-oxa-naphtho[2,1-e]azulen-7-one], for which, in assay [2] (setting [3]), the IC50 is 78 nM.
For the compound `CC#C[C@]1(O)CCC2C3CCC4=CC(=O)CCC4=C3[C@@H](c3ccc(OC)cc3)OC[C@@]21C` (some centres unmarked) [Compound 27], the IC50 in assay [1] (A549 cells) is 41.5 nM.

What is called IC50 is the concentration needed to halve the response being measured.
